Assay [1] addresses T1, Arabidopsis TGD2, N-terminally truncated TGD2-dTMD-His (from Gly-119) (Arabidopsis thaliana, UniProt Q9LTR2).
T1 sequence (Q9LTR2 119-381): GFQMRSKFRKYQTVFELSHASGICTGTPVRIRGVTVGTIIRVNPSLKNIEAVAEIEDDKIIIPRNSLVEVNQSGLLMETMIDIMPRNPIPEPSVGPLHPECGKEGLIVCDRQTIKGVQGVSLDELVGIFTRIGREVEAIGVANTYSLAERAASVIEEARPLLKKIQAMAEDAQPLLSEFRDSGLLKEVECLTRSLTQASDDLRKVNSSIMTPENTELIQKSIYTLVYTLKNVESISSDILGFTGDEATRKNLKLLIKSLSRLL
Description: Liposome binding assay, TGD2-dTMD-His. As to conditions: phosphatidylcholine liposomes with or without PA (6:4 wt/wt). The protocol:
The liposome binding assay was performed as previously reported. Sano et al., (1998) J. Biol. Chem. 273:4783-4789. Lipids (i.e., for example, phosphatidylcholine or a mixture of phosphatidylcholine and PA at 6:4 wt/wt) were incubated in TBS (50 mM Tris/HCl, pH 7/0.1M NaCl) at 37° C. for 1 hour followed by vigorous vortexing for 5 min. The liposomes were precipitated at 20,000×g and washed twice with ice-cold TBS.
Liposomes (200 μg) were mixed with purified TGD2 protein lacking the TMD (10 μg/ml) and TBS to make 100 μl of solution. The mixture was incubated at 30° C. for 30 min and washed twice with ice-cold TBS by centrifugation at 20,000×g at 4° C. The liposome pellet mixed with sample buffer was analyzed by SDS/PAGE. Laemmli, U. K. (1970) Nature 227, 680-685. Immunodetection of the His-tagged protein was accomplished by using the above-mentioned Penta-His antibody at 1:6,000 and the anti-mouse antibody at 1:10,000 dilutions. The BCIP/NBT Kit from Bio-Rad was used for color detection.

Assay [2] has as its target Arabidopsis TGD2, DsRed fusion of the 25-mer minimal domain (residues 201-225, SEQ ID NO:12), K221A (Arabidopsis thaliana, UniProt Q9LTR2, K221A). Description: Liposome-association assay, point mutant K221A of the minimal domain. The class given is binding. Conditions: PC liposomes; any of the constructs. As for the experimental part: Some reports have identified that TGD2 PA-binding regions involve basic amino acids and/or tryptophan residues (10). […] Based on sequence similarity of TGD2 to its closely related homologs in plants and green algae, several charged and/or conserved amino acids were picked as potential interesting residues in the 25-mer minimal domain for possibly mediating interactions with PA. An alanine screen was then performed to evaluate these residues within a minimal PA binding region of TGD2 (i.e., for example, SEQ ID NO:12). Point mutations were generated in the 25-mer minimal domain and fused with DsRed to test PA binding by liposome-association assay using 100% PA liposomes.
The liposome association assay was performed as previously reported. (31). […]
Liposomes (200 μg) were mixed with purified DsRed-TGD2 fusion protein and TBS to make a final 100 μL solution. […] The liposome pellet mixed with sample buffer was analyzed by SDS-PAGE (28). […]
(§1) The protein band was visualized by chemiluminescent detection kit from Sigma. The autoradiography film was scanned, distinct protein bands were quantified using computer software Multi Gauge V3.0 (Fujifilm USA, Valhalla, N.Y.) and resulted data were plotted and analyzed by OriginPro8 (Origin lab corporation, Northampton, Mass.).

The subject of assay [3] is DsRed protein (Discosoma sp. red fluorescent protein). Briefly: Liposome-association assay, DsRed control. The class given is binding. As to conditions: FIG. 3B. As for the experimental part: (§2) The liposome association assay was performed as previously reported. (31). Briefly, lipids (dioleoyl-phosphatidylcholine, DOPC or dioleoyl-PA, DOPA) were incubated in TBS (50 mM Tris-HCl, pH 7; 0.1 M NaCl) at 37° C. for an hour followed by vigorous vortexing for 5 min. The liposomes were precipitated at 20,000 g and washed twice with ice-cold TBS.
(§3) Liposomes (200 μg) were mixed with purified DsRed-TGD2 fusion protein and TBS to make a final 100 μL solution. The mixture was incubated at 30° C. for 30 min and washed twice with ice-cold TBS by centrifugation at 20,000 g at 4° C. The liposome pellet mixed with sample buffer was analyzed by SDS-PAGE (28). Immuno-detection of the His-tagged protein was accomplished using the above mentioned Penta-His antibody at 1:15,000 and the anti mouse antibody at 1:75,000 dilution.
as §1

In assay [4] the target is T2, Arabidopsis TGD2, DsRed-TGD2C WT (DR-WT) fusion protein, residues 119-381, SEQ ID NO:107 (Arabidopsis thaliana, UniProt Q9LTR2).
T2 construct: made in house; host or cells: Escherichia coli BL21 (DE3)
T2 sequence (Q9LTR2 119-381): T1 sequence (Q9LTR2 119-381)
Briefly: Liposome-association assay (mixed PA/PC liposomes), DsRed-TGD2C WT. The format is binding. Conditions: PC, PA/PC or PA liposomes, FIG. 3B. As for the experimental part: FIG. 2A: Analysis by liposome-association assay. A mixture of dioleoyl-PA and dioleoyl-PC was used where the weight percent of PA was varied from 0-100% (wt/wt), maintaining the total lipid invariant at 250 μg. 1 μg protein was used. P, protein recovered in the absence of lipids.
In this assay, purified recombinant proteins were incubated with liposomes for 30 min at 30° C. before centrifugation at 20,000 g for 10 min to pellet the liposomes. Proteins bound to the liposomes were found associated with the lipid pellet, whereas non-binding proteins remained in the supernatant. In an effort to determine the optimal concentration of PA required for high specificity binding, a PA/PC liposome mixture containing varying weight fractions of PA was prepared and incubated with DsRed-TGD2CWT or DsRed alone.
as §2, §3, §1

Here are results for 1 compound from patent US8629251B2, “Specific detection and quantification of phosphatidic acid using an Arabidopsis trigalactosyldiacylglycerol-4 (TGD4) protein” (Board of Trustees of Michigan State University, priority 2008, dated 2014).

Chain of Arabidopsis TGD2, DsRed fusion of the 25-mer minimal domain (residues 201-225, SEQ ID NO:12), K221A (Q9LTR2 201-225 K221A): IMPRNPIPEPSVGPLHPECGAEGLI

Regarding `CCCCCCCC/C=C\CCCCCCCC(=O)OC[C@H](COP(=O)([O-])OCC[N+](C)(C)C)OC(=O)CCCCCCC/C=C\CCCCCCCC` [PC, phosphatidylcholine], in assay [1], the liposome binding entry is “did not bind”. Moreover, the PC-liposome binding result in assay [2] was “No detectable PC-liposome binding”. Moreover, in assay [3], the “binding to PC or PA” value is “does not display binding”. For the same compound, in assay [4], the “binding to PA or PC” value was “no interaction”.
